For assay [1], the system named is benzodiazepin-receptors. Description: Inhibition of 3H-Flunitrazepam binding (benzodiazepin-receptors). The following applies: for pIC50: log-probit-analysis. The text has this:
(§1) III. Determination of activity to central nervous system.
(§2) The following compounds have been tested for their activity to benzodiazepin-receptors and imipramin-fixation sites in comparison to the known compounds Amitriptylinoxid and Medazepam:
(§3) The determination of their inhibitory activity has been effected corresponding to H. W. Damm et al., Res. Comm. chem. path. Pharmacol. 22, 597-600 (1978) or, respectively, M. Briley et al., Eur. J. Pharmacol. 72, 377-380 (1981). The separation of the bound from the free ligand concentration is effected by filtration. The used ligands Flunitrazepam and Imipramin has been marked by tritium.
(§4) Half maximum inhibitory values have been determined by means of a […]

Assay [2] deals with T1, imipramin-fixation sites (Rattus norvegicus, UniProt P31652).
T1 construct: from tissue
Description: Inhibition of 3H-Imipramin binding (imipramin-fixation sites). The following applies: for pIC50: log-probit-analysis.
Description: as §1, §2, §3, §4

Assay [3] concerns isolated right-hand atrium. Nature of the assay: Chronotropic effect in spontaneously pulsing right-hand atrium of guinea pigs. The following applies: Cavia porcellus, mean percentage change to starting value, six determinations; for activation at 100 µM: 1 × 10^-4 mol/l, A in 1 × 10^-4 molar citric acid, B in tetraglycol and dilute hydrochloric acid. The arrangement: species or system guinea pig. Here is the method: (§5) I. Test to show inotropic effectiveness in the isolated atrium of guinea pigs.
(§6) The measurements have been effected on isolated atria of guinea pigs. The effect to pulse frequency (chronotropy) is determined at the spontaneously pulsing right-hand atrium. The effect to the contractility (inotropy) is determined at the electrically stimulated left-hand atrium. The mean values of the percentage change to the starting value from six different determinations in each test is given hereinafter.

In assay [4] the test system is isolated left-hand atrium. Nature of the assay: Inotropic effectiveness in electrically stimulated left-hand atrium of guinea pigs. The arrangement: species or system guinea pig. The note with it: Cavia porcellus, mean percentage change to starting value, six determinations, read-out: Inotropic Effect; for activation at 100 µM: 1 × 10^-4 mol/l, A in 1 × 10^-4 molar citric acid, B in tetraglycol and dilute hydrochloric acid. Here is the method: as §5, §6

Assay [5] relates to narcotized cat. Nature of the assay: Determination of the myocardial effect in the narcotized cat. The class given is in vivo. The text has this: II. Determination of the myocardial effect in the narcotized cat.
10 cats of both sexes are narcotized with chloralose-urethane (0.25% urethane, 0.05% chloralose per kilogram). To ease the spontaneous respiration there was effected a tracheotomy. The following hemodynamic parameters were noted down:
The arteriel systolic and diastolic blood pressure by means of a polyethylene cathether in the right-hand Arteria femoralis registered by means of a Statham element type P23 DB. The pulse frequency was obtained from the blood pressure amplitude and registered by means of a cardiotachometer (type EKA-pulse).
The increase of isovolumetric blood pressure was determined by means of a catheter tip manometer of the type PC 350 A of the Millar Company, USA, introduced to the Arteria carotis communis left-ventricullary and was determined by subsequent differentiation (amplifier of Messrs. Sachs).
The known values have been registered continuously by a Beckmann-Dynograph of the type R. There are given the values in an interval of 2 minutes.
The test animals have been heparinized with 500 I.E. of Liquemin®.
The test compounds are dissolved as follows:
Compound A in 50% glycofurol with heating,
Compound B in 10% glycofurol and 5% HCl with heating.
The test compounds have been administered at consecutively increasing dosages at a volume of 0.1 cc./kg. (Arteria femoralis). The total time of injection was […]. The next dose has been administered only after the complete dying-out of the effect of the previous administration.

[6] abbreviates: 1 × 10^-3 mol/l, in tetraglycol and dilute hydrochloric acid.

pIC50: −log10 of the molar value.

T1 sequence (P31652 whole entry): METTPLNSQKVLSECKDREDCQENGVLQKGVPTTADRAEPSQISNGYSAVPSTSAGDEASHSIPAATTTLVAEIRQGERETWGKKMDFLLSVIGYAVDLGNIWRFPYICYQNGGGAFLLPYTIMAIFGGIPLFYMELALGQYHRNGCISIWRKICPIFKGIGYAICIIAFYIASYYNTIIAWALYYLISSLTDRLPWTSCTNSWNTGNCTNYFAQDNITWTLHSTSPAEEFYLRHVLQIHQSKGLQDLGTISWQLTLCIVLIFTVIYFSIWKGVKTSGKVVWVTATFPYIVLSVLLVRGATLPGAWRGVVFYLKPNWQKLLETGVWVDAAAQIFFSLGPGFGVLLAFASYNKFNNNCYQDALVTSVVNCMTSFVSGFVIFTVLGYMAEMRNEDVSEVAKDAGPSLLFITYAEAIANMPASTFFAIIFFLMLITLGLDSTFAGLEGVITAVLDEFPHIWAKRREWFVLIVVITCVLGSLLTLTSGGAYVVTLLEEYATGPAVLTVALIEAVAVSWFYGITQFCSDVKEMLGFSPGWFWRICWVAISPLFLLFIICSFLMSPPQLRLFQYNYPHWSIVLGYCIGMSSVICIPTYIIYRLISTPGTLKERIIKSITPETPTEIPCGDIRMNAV

As a reminder, the pIC50 is the negative decadic logarithm of the IC50, by convention in mol/L. High values mean a small IC50, low ones a large IC50. On to `Cl.O=c1ccc(-c2ccc(Cn3cccn3)s2)nn1CCN1CCOCC1` [D, 2-(2-Morpholino-ethyl)-6-[5-(pyrazol-1-yl-methyl)-thien-2-yl]-3(2H)-pyridazinon-hydrochloride], for which the “3H-Flunitrazepam % Inhibition” value in assay [1] (1 × 10^-4 mole/l) is on record as 49%; in assay [1] (1 × 10^-6 mole/l), 2%. Also, the results for the pIC50 in assay [1] and in assay [2] were 4.22 and 4.70, respectively. Also, the “3H-Imipramin % Inhibition” value in assay [2] (1 × 10^-4) came out at 87%; in assay [2] (1 × 10^-6 mole/l), 34%.
As for `Cl.O=c1ccc(-c2ccc(Cn3ccnc3)s2)nn1CCN1CCOCC1` [E, 6-[5-(Imidazol-1-yl-methyl)-thien-2-yl]-2-(2-morpholino-ethyl)-3(2H)-pyridazinon-hydrochloride], the “3H-Flunitrazepam % Inhibition” value was 74% in assay [1] (1 × 10^-4 mole/l) and 19% in assay [1] (1 × 10^-6 mole/l). Further, the pIC50 in assay [1] was 5.05. Moreover, the “3H-Imipramin % Inhibition” value in assay [2] (1 × 10^-4) was 40%; in assay [2] (1 × 10^-6 mole/l), 4%.
Compound `C[N+](C)([O-])CCC=C1c2ccccc2CCc2ccccc21` [Amitriptylinoxid, reference compound] had a pIC50 in assay [2] of 4.62.
As for `Cl.O=c1ccc(-c2ccc(Cn3ccnc3)s2)nn1CCN1CCCCC1` [F, 6-[5-(Imidazol-1-yl-methyl)-thien-2-yl]-2-(2-piperidino-ethyl)-3(2H)-pyridazinon-hydrochloride], the “3H-Flunitrazepam % Inhibition” value in assay [1] (1 × 10^-4 mole/l) came out at 66%; in assay [1] (1 × 10^-6 mole/l), 12%. In addition, the pIC50 is 4.05 in assay [1] and 5.15 in assay [2]. For the same compound, the “3H-Imipramin % Inhibition” value in assay [2] (1 × 10^-4) stood at 62%; in assay [2] (1 × 10^-6 mole/l) it was 7%.
Regarding `Cc1cc(-c2ccccc2)nn(CCN2CCOCC2)c1=O.Cl` [H, 4-Methyl-2-(2-morpholino-ethyl)-6-phenyl-3(2H)-pyridazinon-hydrochloride, reference compound], the “3H-Flunitrazepam % Inhibition” value is given as 14% in assay [1] (1 × 10^-4 mole/l) and 0% in assay [1] (1 × 10^-6 mole/l). For the same compound, the “3H-Imipramin % Inhibition” value in assay [2] (1 × 10^-4) was 36%; in assay [2] (1 × 10^-6 mole/l), 8%.
In turn, `CN1CCN=C(c2ccccc2)c2cc(Cl)ccc21` [Medazepam, reference compound] showed a pIC50 in assay [1] of 5.41.
Take `O=c1ccc(-c2ccc(Cn3ccnc3)s2)n[nH]1` [Compound A, 6-[5-(Imidazol-1-yl-methyl)-thien-2-yl]-3(2H)-pyridazinone]: the figures for the activation at 100 µM in assay [3] and in assay [4] were 19% and 44%, respectively. In addition, the “Blood Pressure diast.” value is -1% in assay [5] (0.1 mg/kg i.v.), -6% in assay [5] (0.316 mg/kg i.v.), -18% in assay [5] (1.0 mg/kg i.v.) and -33% in assay [5] (3.16 mg/kg i.v.). In addition, the “Blood Pressure syst.” value in assay [5] (0.1 mg/kg i.v.) is recorded as “+1%”; in assay [5] (0.316 mg/kg i.v.) it was 0%; in assay [5] (1.0 mg/kg i.v.), -8%; in assay [5] (3.16 mg/kg i.v.), -19%. The “Myocardial Contractility” value was “+24%” in assay [5] (0.1 mg/kg i.v.), “+32%” in assay [5] (0.316 mg/kg i.v.), “+42%” in assay [5] (1.0 mg/kg i.v.) and “+51%” in assay [5] (3.16 mg/kg i.v.). In addition, the “Pulse Frequency” value is recorded as “+1%” in assay [5] (0.1 mg/kg i.v.), “+1%” in assay [5] (0.316 mg/kg i.v.), -9% in assay [5] (1.0 mg/kg i.v.) and -15% in assay [5] (3.16 mg/kg i.v.).
With `Cl.O=c1ccc(-c2ccc(Cn3ccnc3)s2)nn1CCCN1CCCCC1` [G, 6-[5-(Imidazol-1-yl-methyl)-thien-2-yl]-2-(3-piperidino-propyl)-3(2H)-pyridazinon-hydrochloride], the “3H-Flunitrazepam % Inhibition” value in assay [1] (1 × 10^-4 mole/l) came to 40%; in assay [1] (1 × 10^-6 mole/l) it was 4%. For the same compound, the “3H-Imipramin % Inhibition” value came out at 86% in assay [2] (1 × 10^-4) and 27% in assay [2] (1 × 10^-6 mole/l). In assay [2], this compound had a pIC50 of 5.52.
With `Nc1cc(-c2ccncc2)c[nH]c1=O` [Compound B, 3-Amino-5-(4-pyridyl)-2-pyridone, reference compound], the figures for the activation at 1000 µM in assay [3] (setting [6]) and in assay [4] (setting [6]) were 20% and 21%, respectively. Also, the figures for the activation at 100 µM in assay [3] and in assay [4] were 2% and 4%, respectively. The “Blood Pressure diast.” value in assay [5] (0.1 mg/kg i.v.) was -3%; in assay [5] (0.316 mg/kg i.v.), -4%; in assay [5] (1.0 mg/kg i.v.), -22%; in assay [5] (3.16 mg/kg i.v.) it was -51%. The “Blood Pressure syst.” value is listed as -3% in assay [5] (0.1 mg/kg i.v.), -2% in assay [5] (0.316 mg/kg i.v.), -15% in assay [5] (1.0 mg/kg i.v.) and -35% in assay [5] (3.16 mg/kg i.v.). The “Myocardial Contractility” value in assay [5] (0.1 mg/kg i.v.) is “+5%”; in assay [5] (0.316 mg/kg i.v.) it was “+25%”; in assay [5] (1.0 mg/kg i.v.) it was “+40%”; in assay [5] (3.16 mg/kg i.v.), “+30%”. Further, the “Pulse Frequency” value in assay [5] (0.1 mg/kg i.v.) is 0%; in assay [5] (0.316 mg/kg i.v.) it was “+1%”; in assay [5] (1.0 mg/kg i.v.) it was 0%; in assay [5] (3.16 mg/kg i.v.), -20%.

(Values after patent publication US4667033A, “Substituted 6-(thien-2-yl)-3(2H)-pyridazinones” (A. Nattermann & Cie GmbH, priority 1983, dated 1987).)
